Laboratory results as given in PubChem BioAssay AID1919015 (Molecular Pharmacology Branch, DTP, NCI, 2023).

Tested on: OVCAR-5 complex spheroids with HUVEC/MSC, viability, % test/control
Assay: Anticancer human tumor OVCAR-5 cell line growth inhibition [AhR];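 also: spheroids exposed to compounds for 7 days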;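 as to viability, T/C: 100% = DMSO vehicle control wells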
Settings: for IC50: curve of first compound; for viability, T/C: stronger effect = lower value
Summary of the method: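 Complex tumor spheroids co-cultured with HUVEC and human MSC stroma; AhR antagonists tested in combination with standard-of-care and investigational agents. Top concentration at or near clinical Cmax (else 10 microM), half-log dilutions; growth expressed as percent test/control.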

Q: Which IC50 (second compound 0.1 µM) does the source give for `Nc1ncn(C2CC(O)C(CO)S2)c(=O)n1` (stereo not given) + Cc1cncc(-c2nc(NCCc3c[nH]c4ccccc34)c3ncn(C(C)C)c3n2)c1 here?
A: > 300 nM

Q: And the IC50 (second compound 0.316 µM)?
A: > 300 nM

Q: And the IC50 (second compound 1 µM)?
A: > 300 nM

Q: What about the IC50 (second compound 3.16 µM) of the same compound?
A: > 300 nM

Q: And the IC50 (second compound 10 µM)?
A: < 0.949 nM

Q: What about the viability, T/C (second compound 0.1 µM, first compound 0.000949 µM) of the same compound?
A: 99.8%

Q: What about the viability, T/C (second compound 0.1 µM, first compound 0.003 µM) of the same compound?
A: 101%

Q: And the viability, T/C (second compound 0.1 µM, first compound 0.00949 µM)?
A: 102%

Q: And the viability, T/C (second compound 0.1 µM, first compound 0.03 µM)?
A: 98.4%

Q: What about the viability, T/C (second compound 0.1 µM, first compound 0.0949 µM) of the same compound?
A: 85.9%

Q: What about the viability, T/C (second compound 0.1 µM, first compound 0.3 µM) of the same compound?
A: 80.6%

Q: And the viability, T/C (second compound 0.316 µM, first compound 0.000949 µM)?
A: 99.1%

Q: And the viability, T/C (second compound 0.316 µM, first compound 0.003 µM)?
A: 101%

Q: What about the viability, T/C (second compound 0.316 µM, first compound 0.00949 µM) of the same compound?
A: 96.8%

Q: What about the viability, T/C (second compound 0.316 µM, first compound 0.03 µM) of the same compound?
A: 93.1%

Q: And the viability, T/C (second compound 0.316 µM, first compound 0.0949 µM)?
A: 85.5%

Q: And the viability, T/C (second compound 0.316 µM, first compound 0.3 µM)?
A: 78.2%

Q: And the viability, T/C (second compound 1 µM, first compound 0.000949 µM)?
A: 87.8%

Q: What about the viability, T/C (second compound 1 µM, first compound 0.003 µM) of the same compound?
A: 88.7%

Q: And the viability, T/C (second compound 1 µM, first compound 0.00949 µM)?
A: 89.7%

Q: What about the viability, T/C (second compound 1 µM, first compound 0.03 µM) of the same compound?
A: 79.7%

Q: What about the viability, T/C (second compound 1 µM, first compound 0.0949 µM) of the same compound?
A: 75.4%

Q: And the viability, T/C (second compound 1 µM, first compound 0.3 µM)?
A: 70.9%

Q: What about the viability, T/C (second compound 3.16 µM, first compound 0.000949 µM) of the same compound?
A: 75.4%

Q: And the viability, T/C (second compound 3.16 µM, first compound 0.003 µM)?
A: 76.3%

Q: What about the viability, T/C (second compound 3.16 µM, first compound 0.00949 µM) of the same compound?
A: 75.5%

Q: What about the viability, T/C (second compound 3.16 µM, first compound 0.03 µM) of the same compound?
A: 79.6%

Q: And the viability, T/C (second compound 3.16 µM, first compound 0.0949 µM)?
A: 63.2%

Q: And the viability, T/C (second compound 3.16 µM, first compound 0.3 µM)?
A: 62.7%

Q: What about the viability, T/C (second compound 10 µM, first compound 0.000949 µM) of the same compound?
A: 18.3%

Q: What about the viability, T/C (second compound 10 µM, first compound 0.003 µM) of the same compound?
A: 17.9%

Q: And the viability, T/C (second compound 10 µM, first compound 0.00949 µM)?
A: 18%

Q: And the viability, T/C (second compound 10 µM, first compound 0.03 µM)?
A: 15.2%

Q: What about the viability, T/C (second compound 10 µM, first compound 0.0949 µM) of the same compound?
A: 14.3%

Q: What about the viability, T/C (second compound 10 µM, first compound 0.3 µM) of the same compound?
A: 15.1%
